Measured values as given in paper PMC11303563 (Communications Medicine, 2024).
Where “and” joins values, the source holds several entries; their conditions need not be identical. Equal entries are not always repeated.

How the values were obtained:
[1] = system: THR-regulated genes and lipid metabolism-related genes in the liver
[2] = In vitro blood-brain barrier permeability assay (BBB kit RBT-24H); assay type: in vitro ADME, rat; settings: rat, 10 μM on luminal side, read-out: apparent permeability (Papp)
Method: Therefore, we tested BBB transparency in vitro using the BBB kit RBT-24H (PharmaCo-Cell)[35]. […] Blood-brain barrier permeability assay The blood-brain barrier (BBB) transparency of TH analogs was assessed in vitro using RBT-24H (PharmaCo-Cell)[5] according to the manufacturer 's protocol. […] After 30 min, the assay buffer in the wells mimicking the abluminal side was collected, and the concentration of the compounds was measured using liquid chromatography-mass spectrometry (LC-MS). […] These tips were preconditioned with 20 μL of acetonitrile and 20 μL of 0.1% TFA in purified water. 100 μL of the samples were loaded onto the preconditioned tips, washed with 200 μL of DW, and then eluted with 10 μL of acetonitrile. Triazine (1% vol/vol) was added to the eluent as an internal standard. […] 3 μm; Imtakt, Kyoto, Japan). All the experiments were performed using an Ultimate 3000 UHPLC system coupled with a Q Exactive Plus Orbitrap mass spectrometer (Thermo Fisher Scientific). […] Data were shown as mean ± standard deviation (n=3).

[3] = system: high-fat diet (HFD)-induced obesity model mice; assay: Serum lipid analysis (total cholesterol, triglycerides) in HFD mice; assay type: in vivo, C57BL/6J mice; parameters: Serum TC (Fig. 4a), individual mouse values / Serum TG (Fig. 4b), individual mouse values / Serum TC (Fig. 4a), Mean Diff. ND vs. treatment (Tukey) / Serum TC (Fig. 4a), Mean Diff. Vehicle vs. treatment (Tukey) / Serum TC (Fig. 4a), group mean (Mean 2) / Mean Diff., ND vs. treated (Fig. 4b) / Mean Diff., Vehicle vs. treated (Fig. 4b) / Mean (Fig. 4b): unit not given here; settings: for Serum TC (Fig. 4a), group mean (Mean 2) / Mean (Fig. 4b): n=10; for Serum TC (Fig. 4a), Mean Diff. ND vs. treatment (Tukey): ND minus treated; for Serum TC (Fig. 4a), Mean Diff. Vehicle vs. treatment (Tukey): Vehicle minus treated; for Mean Diff., ND vs. treated (Fig. 4b) / Mean Diff., Vehicle vs. treated (Fig. 4b): Tukey's multiple comparisons test; for Mean (Fig. 4b): group mean
Method: Fig. 4 Effects of TH analogs on the accumulation of lipids in mice. […] After 3 weeks of injection, serum and liver tissues were collected, and the amount of serum cholesterol (a), serum triglycerides (b), liver cholesterol (c), liver triglycerides (d), and liver total lipids (e) were measured.

[4] = Heart weight (cardiac hypertrophy); settings: for Heart weight, group mean (Mean 2): n 10, Vehicle mean 136.7; for heart weight vs vehicle: HFD mice, 3 weeks
Method: Male 7-week-old C57BL/6J mice were obtained from a local supplier (Nihon SLC, Shizuoka, Japan). The mice were individually housed in cages (Innocage; ORIENTAL GIKEN) at 23 °C with a 12-h-light–dark cycle starting at 08:00 a.m. […] The injection was prepared by dissolving the compounds in 0.5 N NaOH at a concentration of 100 mM, which was then further diluted with saline to a concentration of either 0.05 or 0.5 mM. The volume of the solution injected was determined based on the body weight of the animal, measured once a week, with 0.05 and 0.5 mM solutions injected at 0.1 and 1 µmol/kg day, respectively. Each group consisted of 10 animals, except for the ND (n = 8) and HFD with saline (vehicle, n = 9) groups.
After three weeks of daily injections, the body weights of the mice were measured. […] Subsequently, the animals were euthanized using deep isoflurane anesthesia, and the liver, heart, and epididymal adipose tissues were removed from the body. […] Hearts were weighed and fixed in 4% paraformaldehyde for 48 h in a cassette (Sakura Finetek Japan, Tokyo, Japan).
Heart weight was measured to assess heart toxicity. Data are shown as the mean ± SEM (n = 8–10). Significant differences among groups are indicated by asterisks (*P < 0.05, and ****P < 0.0001, one-way ANOVA with Tukey’s post-hoc test) (b).

[5] = system: high-fat diet (HFD)-induced obesity model mice; assay: Weight of epididymal adipose tissue (visceral fat) in HFD mice; assay type: in vivo, C57BL/6J mice; settings: for Fig. 3b (weight of epididymal adipose tissue), group mean (Mean 2) / Epididymal adipose weight, individual mice (Fig. 3b) / weight of the epididymal adipose tissue vs vehicle: HFD mice; for Fig. 3b (weight of epididymal adipose tissue), group mean (Mean 2): n=10; for Fig. 3b (weight of epididymal adipose tissue), group mean (Mean 2) / Fig. 3b (weight of epididymal adipose tissue), Mean Diff. ND vs. treatment (Tukey) / Fig. 3b (weight of epididymal adipose tissue), Mean Diff. Vehicle vs. treatment (Tukey) / Epididymal adipose weight, individual mice (Fig. 3b): in mg (unit assumed); for Fig. 3b (weight of epididymal adipose tissue), Mean Diff. ND vs. treatment (Tukey): ND minus treated; for Fig. 3b (weight of epididymal adipose tissue), Mean Diff. Vehicle vs. treatment (Tukey): Vehicle minus treated; for weight of the epididymal adipose tissue vs vehicle: 3 weeks
Method: (§1) Epididymal adipose tissue was weighed.
(§2) Fig. 3 Effects of intraperitoneal injection of TH analogs on body weight and deposition of visceral fat. […] After three weeks of injection, body weight (a), and weight of the epididymal adipose tissue (b) were measured.

[6] = system: high-fat diet (HFD)-induced obesity model mice; assay: Body weight of high-fat diet-induced obesity model mice; assay type: in vivo, C57BL/6J mice; parameters: Body weight, Mean Diff. ND vs. treated: unit not given here; settings: for Body weight, 95.00% CI of diff. ND vs. treated / Body weight, Mean Diff. ND vs. treated: ND group as comparator; for Body weight, 95.00% CI of diff. ND vs. treated / Body weight, Mean Diff. ND vs. treated / Body weight, 95.00% CI of diff. Vehicle vs. treated / Body weight, Mean Diff. Vehicle vs. treated: Tukey's multiple comparisons test; for Body weight, Mean Diff. Vehicle vs. treated / Body weight, group mean (Fig. 3a) / Body weight, individual mice (Fig. 3a): in g (unit assumed); for Body weight, group mean (Fig. 3a): n 10
Method: The injection was given 6 h after light on. Food consumption and body weights were measured weekly. Food and water were provided to the animals ad libitum. The animals were treated according to the guidelines of Nagoya University, and all experimental procedures were approved by the Animal Experiment Committee of Nagoya University (A210715-003).
as §1, §2

[7] = HFD mice, 1 μmol/kg day, RT-qPCR, reference gene Rps18
[8] = liver gene expression, 1µmol dose group vs. Vehicle
[9] = HFD mice, i.p. 1 µmol/kg day, 3 weeks

Structure (SMILES): O=C(O)Cc1cc(C(F)(F)F)c(Cc2ccc(O)c3ccccc23)c(C(F)(F)F)c1 [ZTA-261]
- Cyp7a1 expression in the liver, individual animal values ([1]; 1µmol, one value per animal): 0.6381 and 0.6001 and 0.9755 and 0.7051 and 0.7377 and 0.8699 and 1.225 and 1.875 and 1.688 and 1.407
- Dio1 expression in the liver, individual animal values ([1]; 1µmol, one value per animal): 2.348 and 0.8674 and 3.4594 and 3.712 and 3.243 and 4.342 and 3.767 and 2.33 and 3.714 and 5.338
- Ldlr expression in the liver, individual animal values ([1]; 1µmol, one value per animal): 0.4288 and 1.672 and 1.891 and 1.348 and 1.361 and 2.264 and 2.662 and 1.059 and 1.183 and 1.422
- Me1 expression in the liver, individual animal values ([1]; 1µmol, one value per animal): 2.009 and 0.7713 and 1.636 and 2.32 and 2.026 and 3.023 and 3.213 and 2.688 and 3.436 and 4.664
- Pnpla2 expression in the liver, individual animal values ([1]; 1µmol, one value per animal): 1.268 and 0.9327 and 2.591 and 7.772 and 2.012 and 5.634 and 5.017 and 1.649 and 3.705 and 2.077
- Srebp1c expression in the liver, individual animal values ([1]; 1µmol, one value per animal): 0.1054 and 0.05247 and 0.1951 and 0.3686 and 0.2695 and 0.5078 and 0.5858 and 0.293 and 0.5057 and 0.124
- Thrsp expression in the liver, individual animal values ([1]; 1µmol, one value per animal): 1.26 and 1.164 and 1.998 and 1.521 and 1.182 and 1.374 and 1.7691 and 1.941 and 1.759 and 2.356
- liver expression of Cyp7a1 vs vehicle [1, 7]: not significantly different
- liver expression of Dio1 vs vehicle [1, 7]: significantly upregulated
- liver expression of Ldlr vs vehicle [1, 7]: not significantly different
- liver expression of Me1 vs vehicle [1, 7]: significantly upregulated
- liver expression of Pnpla2 vs vehicle [1, 7]: significantly higher
- liver expression of Srebp1c vs vehicle [1, 7]: Although not statistically significant, the ZTA-261-treated group showed decreased Srebp1c expression
- liver expression of Thrsp vs vehicle [1, 7]: increased
- Pnpla2, Dunn's multiple comparisons test, Mean rank diff. (Vehicle vs. compound) [1, 8]: -17.5
- Srebp1c, Dunn's multiple comparisons test, Mean rank diff. (Vehicle vs. compound) [1, 8]: 13.17
- Pnpla2, Mean rank of treatment group (Mean rank 2) ([1]; liver gene expression, 1µmol dose group, Vehicle mean rank 8): 25.5
- Srebp1c, Mean rank of treatment group (Mean rank 2) ([1]; liver gene expression, 1µmol dose group, Vehicle mean rank […]): 20.5
- Papp at 30 min, 10 µM [2]: 7.28 ± 2.55 ×10⁻⁶ cm/s
- Serum TC (Fig. 4a), individual mouse values ([3]; 0.1 µmol, HFD mice): 170.917 and 174.042 and 146.958 and 171.875 and 171.042 and 164.292 and 178.75 and 197.208 and 153.333 and 201.333
- Serum TG (Fig. 4b), individual mouse values ([3]; 0.1 µmol, HFD mice): 76.25 and 92.083 and 101.25 and 78.417 and 57.583 and 89.25 and 104.25 and 84.25 and 81.75
- Serum TC (Fig. 4a), group mean (Mean 2) ([3]; 0.1 µmol, HFD mice): 173
- Serum TC (Fig. 4a), Mean Diff. ND vs. treatment (Tukey) ([3]; 0.1 µmol): 6.447
- Serum TC (Fig. 4a), Mean Diff. Vehicle vs. treatment (Tukey) ([3]; 0.1 µmol): 77.09
- Serum TC (Fig. 4a), individual mouse values ([3]; 1 µmol, HFD mice): 100.083 and 106.125 and 141.958 and 148.125 and 147.292 and 139.708 and 132.5 and 117.5 and 94.583 and 113
- Serum TG (Fig. 4b), individual mouse values ([3]; 1 µmol, HFD mice): 52.917 and 53.75 and 90.417 and 88.75 and 67.917 and 87.917 and 73.75 and 69.583 and 82.083 and 85.417
- Serum TC (Fig. 4a), group mean (Mean 2) ([3]; 1 µmol, HFD mice): 124.1
- Serum TC (Fig. 4a), Mean Diff. ND vs. treatment (Tukey) ([3]; 1 µmol): 55.33
- Serum TC (Fig. 4a), Mean Diff. Vehicle vs. treatment (Tukey) ([3]; 1 µmol): 126
- Mean Diff., ND vs. treated (Fig. 4b) ([3]; ND minus 0.1 µmol group): 62.42
- Mean Diff., ND vs. treated (Fig. 4b) ([3]; ND minus 1 µmol group): 71.52
- Mean Diff., Vehicle vs. treated (Fig. 4b) ([3]; Vehicle minus 0.1 µmol group): 31.43
- Mean Diff., Vehicle vs. treated (Fig. 4b) ([3]; Vehicle minus 1 µmol group): 40.53
- Mean (Fig. 4b) ([3]; 0.1 µmol, HFD mice): 84.35
- Mean (Fig. 4b) ([3]; 1 µmol, HFD mice): 75.25
- serum triglyceride level vs vehicle [3, 9]: decreased
- Heart weight (Fig. 7b), individual animal values ([4]; 0.1 µmol dose group): 120.4 and 125.5 and 128.7 and 142.9 and 126.8 and 139.4 and 134.1 and 147.6 and 135.4 and 150.2
- Heart weight, Tukey's multiple comparisons test, Mean Diff. (Vehicle vs. compound) ([4]; 0.1 µmol dose group vs. Vehicle): 1.622
- Heart weight, group mean (Mean 2) ([4]; 0.1 µmol dose group): 135.1
- Heart weight (Fig. 7b), individual animal values ([4]; 1 µmol dose group): 135 and 135.2 and 126.1 and 150.6 and 150.7 and 152.1 and 152.8 and 145.4 and 154.6 and 138.8
- Heart weight, Tukey's multiple comparisons test, Mean Diff. (Vehicle vs. compound) ([4]; 1 µmol dose group vs. Vehicle): -7.408
- Heart weight, group mean (Mean 2) ([4]; 1 µmol dose group): 144.1
- heart weight vs vehicle ([4]; i.p. 0.1 µmol/kg day): No such effect
- heart weight vs vehicle ([4]; i.p. 1 µmol/kg day): No such effect
- Fig. 3b (weight of epididymal adipose tissue), group mean (Mean 2) ([5]; 0.1 µmol): 2650
- Fig. 3b (weight of epididymal adipose tissue), Mean Diff. ND vs. treatment (Tukey) ([5]; 0.1 µmol): -1966
- Fig. 3b (weight of epididymal adipose tissue), Mean Diff. Vehicle vs. treatment (Tukey) ([5]; 0.1 µmol): 208.4
- Fig. 3b (weight of epididymal adipose tissue), group mean (Mean 2) ([5]; 1 µmol): 1679
- Fig. 3b (weight of epididymal adipose tissue), Mean Diff. ND vs. treatment (Tukey) ([5]; 1 µmol): -996
- Fig. 3b (weight of epididymal adipose tissue), Mean Diff. Vehicle vs. treatment (Tukey) ([5]; 1 µmol): 1179
- Epididymal adipose weight, individual mice (Fig. 3b) ([5]; 0.1 µmol dose group): 2776.2 and 2045.1 and 1929.4 and 2510.8 and 2876.4 and 3044.5 and 3312.5 and 2871.5 and 2180.4 and 2949.5
- Epididymal adipose weight, individual mice (Fig. 3b) ([5]; 1 µmol dose group): 1625 and 1387 and 1309.2 and 1666.6 and 1860.1 and 1033.5 and 2042 and 1824.7 and 1973.2 and 2072
- weight of the epididymal adipose tissue vs vehicle ([5]; i.p. 0.1 µmol/kg day): did not show any obvious effect
- weight of the epididymal adipose tissue vs vehicle ([5]; i.p. 1 µmol/kg day): decreased significantly
- Body weight, 95.00% CI of diff. ND vs. treated ([6]; 0.1 µmol dose group): -17.31 to -8.599
- Body weight, Mean Diff. ND vs. treated ([6]; 0.1 µmol dose group): -12.95
- Body weight, 95.00% CI of diff. Vehicle vs. treated ([6]; 0.1 µmol dose group): -2.779 to 5.659
- Body weight, Mean Diff. Vehicle vs. treated ([6]; 0.1 µmol dose group): 1.44
- Body weight, 95.00% CI of diff. ND vs. treated ([6]; 1 µmol dose group): -11.31 to -2.596
- Body weight, Mean Diff. ND vs. treated ([6]; 1 µmol dose group): -6.951
- Body weight, 95.00% CI of diff. Vehicle vs. treated ([6]; 1 µmol dose group): 3.224 to 11.66
- Body weight, Mean Diff. Vehicle vs. treated ([6]; 1 µmol dose group): 7.443
- Body weight, group mean (Fig. 3a) ([6]; HFD mice, 0.1 µmol dose group): 41.47
- Body weight, individual mice (Fig. 3a) ([6]; HFD mice, 0.1 µmol dose group): 40.29 and 36.71 and 35.46 and 47.2 and 43.74 and 41.64 and 46.66 and 44.04 and 36.76 and 42.23
- Body weight, group mean (Fig. 3a) ([6]; HFD mice, 1 µmol dose group): 35.47
- Body weight, individual mice (Fig. 3a) ([6]; HFD mice, 1 µmol dose group): 32.91 and 31.68 and 37.61 and 39.1 and 35.68 and 36.65 and 37.77 and 35.13 and 35.26
- body weight vs vehicle (in words) ([6]; HFD mice, i.p. 0.1 µmol/kg day, 3 weeks): did not significantly reduce body weight
- decrease of body weight compared to vehicle [6, 9]: ~ 20%
